# In US9339523B2, “Estrogenic extracts of Asparagus conchinchinensis (Lour.) Merr of the Liliaceae family and uses thereof” (BIONOVO, INC., priority 2007, dated 2016):
# Assays:
# TNF-RE tkLuc = TNF-RE tkLuc reporter, ERα and ERβ not separated (Example 2); type: cell-based, human; settings: for activation of TNF-RE tkLuc: antiestrogens, in contrast to E2
# Method: Plasmid Construction. […] ERβ mutants were created with QuikChange site-directed mutagenesis kits (Stratagene), by using oligonucleotides containing the mutation. The mutants were sequenced with Sequenase kits (Amersham Pharmacia) to verify the presence of the mutation.
# (§1) For experiments, cells were collected, transferred to a cuvette, and then electroporated with a Bio-Rad gene pulser as described previously using 3 μg of reporter plasmid and 1 μg of ERα or ERβ expression vectors. After electroporation, the cells were resuspended in media and plated at 1 ml/dish in 12-well multiplates. […] The concentration of hormone required to produce a half-maximal induction (EC50) or inhibition (IC50) of luciferase activity was calculated with the Prism curve-fitting program (Graph Pad Software, version 2.0b). […] The cells were plated in duplicate at a density of 25,000 cells/35-mm plate in tissue culture medium containing 3% stripped fetal bovine serum. […] After 8 days the cells were counted with a Coulter counter.
# ERβ [1] = molecular target: T1, ERβ (Homo sapiens, UniProt Q92731); test: TNF-RE tkLuc repression in U2OS cells with ERβ; type: cell-based; design: expressed in transfected cells; host or cells: U2OS (A10)
# Method: as §1
# (§2) The extracts (a and b) were than decanted and only the soluble material was used.
# ERβ [2] = molecular target: T1, ERβ; test: ERE-tk-Luc luciferase assay in U2OS cells with ERβ; type: cell-based; design: expressed in transfected cells; host or cells: U2OS (human osteosarcoma); settings: competition with the extract, FIG. 6
# Method: as §1, §2
# [3] = women at high risk for breast cancer; cited from earlier work
# [4] = five years of therapy; cited from earlier work
# T1 sequence (Q92731 whole entry): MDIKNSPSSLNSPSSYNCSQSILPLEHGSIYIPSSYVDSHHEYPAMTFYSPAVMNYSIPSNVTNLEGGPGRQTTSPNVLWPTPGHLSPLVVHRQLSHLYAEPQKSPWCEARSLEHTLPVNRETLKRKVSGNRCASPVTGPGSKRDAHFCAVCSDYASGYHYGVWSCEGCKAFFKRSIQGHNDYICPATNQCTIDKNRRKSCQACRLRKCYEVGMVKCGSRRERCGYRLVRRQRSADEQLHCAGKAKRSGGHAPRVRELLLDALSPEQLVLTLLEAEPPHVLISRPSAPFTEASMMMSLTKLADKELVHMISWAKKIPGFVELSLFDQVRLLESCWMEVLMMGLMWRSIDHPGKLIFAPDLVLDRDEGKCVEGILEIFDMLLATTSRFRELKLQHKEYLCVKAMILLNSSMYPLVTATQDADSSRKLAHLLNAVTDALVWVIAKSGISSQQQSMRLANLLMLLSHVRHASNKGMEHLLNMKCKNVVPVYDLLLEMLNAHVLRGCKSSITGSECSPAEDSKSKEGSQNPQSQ
compound,measurement,setting,value
"C[C@]12CC[C@@H]3c4ccc(O)cc4CC[C@H]3[C@@H]1CC[C@@H]2O [E2, estradiol]",repression of TNF-α activation of TNF-RE tkLuc,TNF-RE tkLuc; in the presence of ERα and ERβ,60-80%
same,repression of TNF-α activation of TNF-RE,ERβ [1],100%
"C[C@]12CC[C@@H]3c4ccc(O)cc4C[C@@H](CCCCCCCCC[S+]([O-])CCCC(F)(F)C(F)(F)F)[C@H]3[C@@H]1CC[C@@H]2O (stereo partly shown) [ICI 182, 780]",effect on the repression induced by E2,TNF-RE tkLuc; TNF-RE tkLuc,abolished the repression induced by E2
same,activation of TNF-RE tkLuc,TNF-RE tkLuc,2 fold
O=C(c1ccc(OCCN2CCCCC2)cc1)c1c(-c2ccc(O)cc2)sc2cc(O)ccc12 [raloxifene],effect on the repression induced by E2,TNF-RE tkLuc; TNF-RE tkLuc,abolished the repression induced by E2
same,activation of TNF-RE tkLuc,TNF-RE tkLuc,2 fold
same,effect on the extract's stimulation of the ERE with ERβ,ERβ [2],is inhibited
CC/C(=C(\c1ccccc1)c1ccc(OCCN(C)C)cc1)c1ccccc1 [tamoxifen],effect on the repression induced by E2,TNF-RE tkLuc; TNF-RE tkLuc,abolished the repression induced by E2
same,activation of TNF-RE tkLuc,TNF-RE tkLuc,2 fold
same,reduction of the risk of primary invasive breast cancer,[3],49%
same,reduction of mortality from breast cancer,[4],22%
same,reduction of the risk of recurrences,[4],42%
TNF-α,activation of 3 copies of the TNF-RE (−125 to −82) upstream of the tk promoter,TNF-RE tkLuc; TNF-RE tkLuc,5-10 fold
